Laboratory results from EP0350946A2 (priority 1988, dated 1990).
Read-outs that look alike come from different tables or passages of the source.

What was measured:
[1] = test system: Pseudoperonospora cubensis; assay: Curative effect on downy mildew of cucumber; assay type: in vivo, cucumber (var: Sagamihanjiro); conditions: sprayed the day after inoculation, observed after 8 days, percent disease control
Excerpt: (§1) Typical test data indicating the excellent fungicidal activity of the amide compounds (I) are shown below. The assessment data are converted to percent disease control. 100 % means no infection; 0 % means that the plant are totally infected compared with the control plant.
A plastic pot was filled with sandy soil, and seeds of cucumber (var: Sagamihanjiro) were sowed therein, followed by cultivation in a greenhouse for 14 days. A spore suspension of Pseudoperonospora cubensis was inoculated by spreading over the seedlings of the test plants, which were then allowed to stand at 20°C overnight under a humid condition. The test compound formulated in a wettable powder according to Formulation Example 1 and diluted with water to a prescribed concentration was thoroughly sprayed over the test plants, which were further grown for 8 days under illumination and observed.

Plasmopara viticola = assay: Curative effect on downy mildew of grapes; assay type: in vivo, grapes (var: Bailey-A); conditions: sprayed the day after inoculation, observed after 8 days, percent disease control
Excerpt: as §1
A plastic pot was filled with sandy soil, and seeds of grapes (var: Bailey-A) were sowed therein, followed by cultivation in a greenhouse for 50 days. A spore suspension of Plasmopara viticola was inoculated by spreading over the seedlings at the 6 to 7 leaf-stage of the test plants, which were then allowed to stand at 20°C overnight under a humid condition. The test compound formulated in a wettable powder according to Formulation Example 1 and diluted with water to a prescribed concentration was thoroughly sprayed over the test plants, which were further grown for 8 days under illumination and observed.

Phytophthora infestans = assay type: in vivo, tomato (var: Ponte Rosa); conditions: sprayed the day after inoculation, observed after 5 days, percent disease control

SMILES	Curative effect Cucumber ([1]; 100 ppm) [%]	Curative effect Cucumber ([1]; 200 ppm) [%]	Curative effect Grape (Plasmopara viticola; 100 ppm) [%]	Curative effect Grape (Plasmopara viticola; 200 ppm) [%]	Curative effect Tomato (Phytophthora infestans; 100 ppm) [%]	Curative effect Tomato (Phytophthora infestans; 200 ppm) [%]
CCOC(C#N)NC(=O)c1sc(C)nc1C (centres unmarked) [Compound 2, 2-ethoxy-2-(2,4-dimethylthiazole-5-carboxamino)acetonitrile]	95	100	100	100	95	100
C#CCCOC(C#N)NC(=O)c1sc(C)nc1C (centres unmarked) [Compound 4, 2-(butynyl-3-oxy)-2-(2,4-dimethylthiazole-5-carboxamino)acetonitrile]		100		100	90	100
CCOC(C#N)NC(=O)c1sc(C)nc1CC (centres unmarked) [Compound 6, 2-ethoxy-2-(4-ethyl-2-methylthiazole-5-carboxamino)acetonitrile]		100	100	100	100	100
CCCOC(C#N)NC(=O)c1sc(C)nc1CC (centres unmarked) [Compound 7, 2-n-propoxy-2-(4-ethyl-2-methylthiazole-5-carboxamino)acetonitrile]	90	100	90	100	100	100
C#CCCOC(C#N)NC(=O)c1sc(C)nc1CC (centres unmarked) [Compound 10, 2-(butynyl-3-oxy)-2-(4-ethyl-2-methylthiazole-5-carboxamino)acetonitrile]	95	100	90	100	95	100
CCc1nc(C)sc1C(=O)NC(C#N)OCCC#N (centres unmarked) [Compound 11, 2-(2-cyanoethoxy)-2-(4-ethyl-2-methylthiazole-5-carboxamino)acetonitrile]	90	100	100	100	100	100
CCSC(C#N)NC(=O)c1sc(C)nc1CC (centres unmarked) [Compound 12, 2-ethylthio-2-(4-ethyl-2-methylthiazole-5-carboxamino)acetonitrile]	90	100	90	100	95	100
CCCc1nc(C)sc1C(=O)NC(C#N)OCC (centres unmarked) [Compound 13, 2-ethoxy-2-(4-n-propyl-2-methylthiazole-5-carboxamino)acetonitrile]	90	95		90	90	95
CCOC(C#N)NC(=O)c1sc(C)nc1C(C)C (centres unmarked) [Compound 14, 2-ethoxy-2-(4-isopropyl-2-methylthiazole-5-carboxamino)acetonitrile]	100	100	90	100	100	100
